These results are taken from patent US20060264460A1 (Wyeth, priority 2005, published 2006).

What is called IC50 is the point on the concentration scale where inhibition reaches its midpoint. The low end stands for greater potency in that assay, the high end for weaker potency in that assay.

The target of this assay is T1, human Cot/Tpl2 kinase (Homo sapiens, UniProt P41279).
T1 construct: human Cot/Tpl2 kinase construct encoding residues 30-398; 6His (N); made in house; host or cells: Sf9 insect cells, baculovirus system (BD Biosciences)
T1 sequence (P41279 30-398): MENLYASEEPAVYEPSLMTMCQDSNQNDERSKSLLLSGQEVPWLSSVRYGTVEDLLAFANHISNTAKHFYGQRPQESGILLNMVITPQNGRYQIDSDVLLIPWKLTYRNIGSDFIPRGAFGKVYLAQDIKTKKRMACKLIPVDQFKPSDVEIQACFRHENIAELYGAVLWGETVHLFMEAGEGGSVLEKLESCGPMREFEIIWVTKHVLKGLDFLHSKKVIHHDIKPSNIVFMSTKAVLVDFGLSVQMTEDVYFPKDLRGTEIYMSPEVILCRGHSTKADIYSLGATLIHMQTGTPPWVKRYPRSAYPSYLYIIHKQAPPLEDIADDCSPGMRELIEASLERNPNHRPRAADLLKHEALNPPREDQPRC
Briefly: Tpl2/Cot kinase assay: GST-MEK1 phosphorylation detected by ELISA (DELFIA Eu). The note with it: Table 2; Tpl2/Cot kinase, GST-MEK1 substrate, 50 uM ATP. The assay is classed as biochemical. In a few lines:
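His-tagged human Tpl2 from Sf9 cells, Ni-affinity and size-exclusion purified (monomer). 0.4 nM Tpl2 with 35 nM GST-MEK1, 50 uM ATP, MOPS pH 7.2, 1% DMSO, 1 h at 30° C; EDTA stop. MEK1 Ser217/221 phosphorylation detected by anti-phospho-MEK1 and Eu-labelled secondary ELISA; IC50 fitted.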
(An ELISA detects its analyte on a solid surface through an enzyme-linked reagent.)
`CC(C)N1CCC(Cn2cc(CNc3cc(Br)c4ncc(C#N)c(Nc5ccc(F)c(Cl)c5)c4c3)nn2)CC1` [Example 567] came in with an IC50 of 0.029 µM. In turn, `CCN1CCC(CCn2cc(CNc3cc(Br)c4ncc(C#N)c(Nc5ccc(F)c(Cl)c5)c4c3)nn2)CC1` [Example 568] displayed a half-inhibitory concentration (IC50) of 0.064 µM. In the case of `CC(C)N1CCC(CCn2cc(CNc3cc(Br)c4ncc(C#N)c(Nc5ccc(F)c(Cl)c5)c4c3)nn2)CC1` [Example 569], half-maximal inhibition (IC50) was put at 0.057 µM. In turn, `N#Cc1cnc2c(Cl)cc(NCc3cn(C4CCOCC4)nn3)cc2c1Nc1ccc(F)c(Cl)c1` [Example 570] had an IC50 of 0.014 µM. Turning to `CN(C)CCc1nc[nH]c1CNc1cc(Br)c2ncc(C#N)c(Nc3ccc(F)c(Cl)c3)c2c1` [Example 571], the IC50 came to 0.24 µM.

Regarding `N#Cc1cnc2c(Cl)cc(NCc3cn(CCOCCOCCO)nn3)cc2c1Nc1ccc(F)c(Cl)c1` [Example 572], 0.091 µM corresponded to half-maximal inhibition (IC50). `N#Cc1cnc2c(Br)cc(NCc3cn(CCOCCOCCO)nn3)cc2c1Nc1ccc(F)c(Cl)c1` [Example 573] showed an IC50 of 0.14 µM. The value for `CN(C)CC(c1ccccc1)n1cc(CNc2cc(Cl)c3ncc(C#N)c(Nc4ccc(F)c(Cl)c4)c3c2)nn1` (stereo not shown) [Example 574] was 0.07 µM. `CN(C)CC(c1ccccc1)n1cc(CNc2cc(Br)c3ncc(C#N)c(Nc4ccc(F)c(Cl)c4)c3c2)nn1` (stereo not shown) [Example 575] returned an IC50 of 0.093 µM. Turning to `N#Cc1cnc2c(Cl)cc(NCc3cn(-c4cc[n+]([O-])cc4)nn3)cc2c1Nc1ccc(F)c(Cl)c1` [Example 576], the IC50 amounted to 0.016 µM. The value for `N#Cc1cnc2c(Br)cc(NCc3cn(-c4cc[n+]([O-])cc4)nn3)cc2c1Nc1ccc(F)c(Cl)c1` [Example 577] was 0.015 µM. `N#Cc1cnc2c(Cl)cc(NCc3cn(-c4ccnc(N5CCCCC5)n4)nn3)cc2c1Nc1ccc(F)c(Cl)c1` [Example 578] displayed a concentration for half-maximal inhibition (IC50) of 0.32 µM. In turn, `N#Cc1cnc2c(Br)cc(NCc3cn(Cc4ccccn4)nn3)cc2c1Nc1ccc(F)c(Cl)c1` [Example 579] returned an IC50 of 0.033 µM. In turn, `N#Cc1cnc2c(Cl)cc(NCc3cn(CCCO)nn3)cc2c1Nc1ccc(F)c(Cl)c1` [Example 581] gave an IC50 of 0.0036 µM.

In the case of `CN(C)C(=O)OCCCn1cc(CNc2cc(Cl)c3ncc(C#N)c(Nc4ccc(F)c(Cl)c4)c3c2)nn1` [Example 582], the concentration for half-maximal inhibition (IC50) was found to be 0.016 µM. With `N#Cc1cnc2c(Cl)cc(NCc3cn(Cc4ccc(C(F)(F)F)cc4)nn3)cc2c1Nc1ccc(F)c(Cl)c1` [Example 583], the IC50 is over 3 µM. Then `CN(C)C(=O)OCCCn1cc(CNc2cc(Br)c3ncc(C#N)c(Nc4ccc(F)c(Cl)c4)c3c2)nn1` [Example 584], with 0.0035 µM; and `N#Cc1cnc2c(Cl)cc(NCc3cn(CC4CCCCC4)nn3)cc2c1Nc1ccc(F)c(Cl)c1` [Example 585], with 0.79 µM; and `CC(c1ccccc1)n1cc(CNc2cc(Cl)c3ncc(C#N)c(Nc4ccc(F)c(Cl)c4)c3c2)nn1` (stereo not shown) [Example 586], with 0.096 µM.

Regarding `CN(C)CCC(c1cccnc1)n1cc(CNc2cc(Br)c3ncc(C#N)c(Nc4ccc(F)c(Cl)c4)c3c2)nn1` (stereo not shown) [Example 587], the IC50 came to 0.0067 µM.

The compound `CN(C)CCC(c1cccnc1)n1cc(CNc2cc(Cl)c3ncc(C#N)c(Nc4ccc(F)c(Cl)c4)c3c2)nn1` (stereo not shown) [Example 588] yielded an IC50 of 0.036 µM. Compound `CC(C)(C)OC(=O)N1CCCN(CCCn2cc(CNc3cc(Br)c4ncc(C#N)c(Nc5ccc(F)c(Cl)c5)c4c3)nn2)CC1` [Example 589] registered an IC50 of 0.52 µM. `CC(C)(C)OC(=O)N1CCCN(CCCn2cc(CNc3cc(Cl)c4ncc(C#N)c(Nc5ccc(F)c(Cl)c5)c4c3)nn2)CC1` [Example 590] displayed an IC50 of 0.12 µM. Consider `CC(C)(C)OC(=O)N1CCN(CCCn2cc(CNc3cc(Br)c4ncc(C#N)c(Nc5ccc(F)c(Cl)c5)c4c3)nn2)CC1` [Example 591], for which 1.3 µM corresponded to half-maximal inhibition (IC50). The value for `CC(C)(C)OC(=O)N1CCN(CCCn2cc(CNc3cc(Cl)c4ncc(C#N)c(Nc5ccc(F)c(Cl)c5)c4c3)nn2)CC1` [Example 592] was 0.23 µM; that for `N#Cc1cnc2c(Br)cc(NCc3cn(CCCN4CCCNCC4)nn3)cc2c1Nc1ccc(F)c(Cl)c1` [Example 594] was 0.043 µM; that for `N#Cc1cnc2c(Cl)cc(NCc3cn(CCCN4CCCNCC4)nn3)cc2c1Nc1ccc(F)c(Cl)c1` [Example 595] was 0.074 µM. As for `N#Cc1cnc2c(Br)cc(NCc3cn(CCCN4CCNCC4)nn3)cc2c1Nc1ccc(F)c(Cl)c1` [Example 596], the midpoint of inhibition, the IC50, lay at 0.11 µM.

Compound `N#Cc1cnc2c(Cl)cc(NCc3cn(CCCN4CCNCC4)nn3)cc2c1Nc1ccc(F)c(Cl)c1` [Example 597] came in with an IC50 of 0.16 µM. `N#Cc1cnc2c(Cl)cc(NCC(=O)NCc3cccnc3)cc2c1Nc1ccc(F)c(Cl)c1` [Example 598] registered an IC50 of 0.2 µM. Regarding `N#Cc1cnc2c(Cl)cc(NCc3cn(CCOC(N)=O)nn3)cc2c1Nc1ccc(F)c(Cl)c1` [Example 599], half-maximal inhibition (IC50) was put at 0.0059 µM.

In the case of `N#Cc1cnc2c(Cl)cc(NCC(=O)NCc3ccncc3)cc2c1Nc1ccc(F)c(Cl)c1` [Example 600], inhibition was half-maximal at 0.048 µM (IC50). Then `N#Cc1cnc2c(Cl)cc(NCC(=O)Nc3cccnc3)cc2c1Nc1ccc(F)c(Cl)c1` [Example 601], with 0.11 µM; and `N#Cc1cnc2c(Cl)cc(NCC(=O)Nc3ccncc3)cc2c1Nc1ccc(F)c(Cl)c1` [Example 602], with 2.4 µM; and `CN(C)CCCNC(=O)CNc1cc(Cl)c2ncc(C#N)c(Nc3ccc(F)c(Cl)c3)c2c1` [Example 603], with over 3 µM. In turn, `N#Cc1cnc2c(Cl)cc(NCC(=O)NCCCN3CCOCC3)cc2c1Nc1ccc(F)c(Cl)c1` [Example 604] returned an IC50 of over 3 µM. As to `CN(C)CCNC(=O)CNc1cc(Cl)c2ncc(C#N)c(Nc3ccc(F)c(Cl)c3)c2c1` [Example 605], inhibition was half-maximal at 1.6 µM (IC50). With `COCCCNC(=O)CNc1cc(Cl)c2ncc(C#N)c(Nc3ccc(F)c(Cl)c3)c2c1` [Example 606], the half-inhibitory concentration (IC50) was determined as 0.23 µM. The compound `N#Cc1cnc2c(Cl)cc(NCC(=O)NCc3ccccn3)cc2c1Nc1ccc(F)c(Cl)c1` [Example 607] came in with an IC50 of 0.33 µM. `N#Cc1cnc2c(Cl)cc(NCC(=O)NCCN3CCOCC3)cc2c1Nc1ccc(F)c(Cl)c1` [Example 608] had an IC50 of 0.53 µM. In turn, `CN(CCCn1cc(CNc2cc(Cl)c3ncc(C#N)c(Nc4ccc(F)c(Cl)c4)c3c2)nn1)C1CCCCC1` [Example 609] came in with a concentration for half-maximal inhibition (IC50) of 0.0018 µM. Regarding `CC1CC(C)CN(CCCn2cc(CNc3cc(Cl)c4ncc(C#N)c(Nc5ccc(F)c(Cl)c5)c4c3)nn2)C1` (stereo not shown) [Example 610], the IC50 amounted to 0.15 µM.

`CN(Cc1cn(C)cn1)c1cc(Br)c2ncc(C#N)c(Nc3ccc(F)c(Cl)c3)c2c1` [Example 611] showed an IC50 of over 3 µM.

In turn, `CN1CCCC1CCNC(=O)CNc1cc(Cl)c2ncc(C#N)c(Nc3ccc(F)c(Cl)c3)c2c1` (stereo not shown) [Example 612] displayed an IC50 of over 3 µM. On to `CN(C)C(=O)Cn1cc(CNc2cc(Cl)c3ncc(C#N)c(Nc4ccc(F)c(Cl)c4)c3c2)nn1` [Example 613], for which the half-maximal inhibitory concentration (IC50) amounted to 0.00054 µM. With `CN(C)C(=O)CCn1cc(CNc2cc(Cl)c3ncc(C#N)c(Nc4ccc(F)c(Cl)c4)c3c2)nn1` [Example 614], the IC50 was 0.01 µM. `CN1CC(CCn2cc(CNc3cc(Cl)c4ncc(C#N)c(Nc5ccc(F)c(Cl)c5)c4c3)nn2)N(C)C1=O` (stereo not shown) [Example 615] yielded an IC50 of 0.0061 µM. In the case of `CCN1CC(CCn2cc(CNc3cc(Cl)c4ncc(C#N)c(Nc5ccc(F)c(Cl)c5)c4c3)nn2)N(c2ccccc2)C1=O` (stereo not shown) [Example 616], half-maximal inhibition (IC50) was put at 0.025 µM. The compound `CCN1CC(CCn2cc(CNc3cc(Cl)c4ncc(C#N)c(Nc5ccc(F)c(Cl)c5)c4c3)nn2)N(c2ccccc2)C1=S` (stereo not shown) [Example 617] showed an IC50 of 0.13 µM. `CC(C)(C)OC(=O)N1CCC[C@H]1CNc1cc(Cl)c2ncc(C#N)c(Nc3ccc(F)c(Cl)c3)c2c1` [Example 618] came in with an IC50 of over 3 µM. Compound `N#Cc1cnc2c(Cl)cc(NC[C@@H]3CCCN3)cc2c1Nc1ccc(F)c(Cl)c1` [Example 619] came in with an IC50 of over 3 µM. Turning to `N#Cc1cnc2c(Br)cc(NCc3cn(Cc4ccccn4)cn3)cc2c1Nc1ccc(F)c(Cl)c1` [Example 620], the IC50 is 0.034 µM. Regarding `N#Cc1cnc2c(Cl)cc(NCc3cn(Cc4ccccn4)cn3)cc2c1Nc1ccc(F)c(Cl)c1` [Example 621], 0.041 µM corresponded to half-maximal inhibition (IC50). For `N#Cc1cnc2c(Cl)cc(NCc3cn(Cc4ccncc4)cn3)cc2c1Nc1ccc(F)c(Cl)c1` [Example 622], the IC50 was 0.0053 µM. For `CCN(C[C@@H]1CCCN1C(=O)OC(C)(C)C)c1cc(Cl)c2ncc(C#N)c(Nc3ccc(F)c(Cl)c3)c2c1` [Example 623], the IC50 was over 3 µM. As for `CN1CCCN(CCCn2cc(CNc3cc(Br)c4ncc(C#N)c(Nc5ccc(F)c(Cl)c5)c4c3)nn2)CC1` [Example 624], the IC50 came to 0.07 µM. Regarding `CN1CCCN(CCCn2cc(CNc3cc(Cl)c4ncc(C#N)c(Nc5ccc(F)c(Cl)c5)c4c3)nn2)CC1` [Example 625], the concentration for half-maximal inhibition (IC50) stood at 0.048 µM. As for `CN1CCN(CCCn2cc(CNc3cc(Br)c4ncc(C#N)c(Nc5ccc(F)c(Cl)c5)c4c3)nn2)CC1` [Example 626], the IC50 was found to be 0.029 µM. In turn, `CN1CCN(CCCn2cc(CNc3cc(Cl)c4ncc(C#N)c(Nc5ccc(F)c(Cl)c5)c4c3)nn2)CC1` [Example 627] displayed an IC50 of 0.039 µM. Consider `N#Cc1cnc2c(Cl)cc(NC3CCCC3Cl)cc2c1Nc1ccc(F)c(Cl)c1` (stereo not shown) [Example 628], for which the IC50 was over 3 µM. The value for `N#Cc1cnc2c(Cl)cc(NC3CCCC3N=[N+]=[N-])cc2c1Nc1ccc(F)c(Cl)c1` (stereo not shown) [Example 629] was 0.42 µM. In turn, `N#Cc1cnc2c(Br)cc(NCC(=O)O)cc2c1Nc1ccc(F)c(Cl)c1` [Example 630] had an IC50 of 0.14 µM. The compound `N#Cc1cnc2c(Cl)cc(NCC(O)CO)cc2c1Nc1ccc(F)c(Cl)c1` (stereo not shown) [Example 631] had an IC50 of 0.59 µM. `N#Cc1cnc2c(Br)cc(NCc3cn(C4CCCC4)cn3)cc2c1Nc1ccc(F)c(Cl)c1` [Example 632] yielded an IC50 of 0.23 µM.
